According to patent US8138189B2, “Substituted benzene compounds as modulators of the glucocorticoid receptor” (Hoffman-La Roche Inc., priority 2009, dated 2012):

These compounds were tested against T1, full length human recombinant glucocorticoid receptor (Homo sapiens, UniProt P04150) (assay: Glucocorticoid Receptor Binding Assay (fluorescence polarization competitor assay, Fluormone GS Far Red tracer)). Settings: not given.
T1 construct: partially purified full length human recombinant glucocorticoid receptor; purchased Panvera/Invitrogen PV4302
T1 sequence (P04150 1-777): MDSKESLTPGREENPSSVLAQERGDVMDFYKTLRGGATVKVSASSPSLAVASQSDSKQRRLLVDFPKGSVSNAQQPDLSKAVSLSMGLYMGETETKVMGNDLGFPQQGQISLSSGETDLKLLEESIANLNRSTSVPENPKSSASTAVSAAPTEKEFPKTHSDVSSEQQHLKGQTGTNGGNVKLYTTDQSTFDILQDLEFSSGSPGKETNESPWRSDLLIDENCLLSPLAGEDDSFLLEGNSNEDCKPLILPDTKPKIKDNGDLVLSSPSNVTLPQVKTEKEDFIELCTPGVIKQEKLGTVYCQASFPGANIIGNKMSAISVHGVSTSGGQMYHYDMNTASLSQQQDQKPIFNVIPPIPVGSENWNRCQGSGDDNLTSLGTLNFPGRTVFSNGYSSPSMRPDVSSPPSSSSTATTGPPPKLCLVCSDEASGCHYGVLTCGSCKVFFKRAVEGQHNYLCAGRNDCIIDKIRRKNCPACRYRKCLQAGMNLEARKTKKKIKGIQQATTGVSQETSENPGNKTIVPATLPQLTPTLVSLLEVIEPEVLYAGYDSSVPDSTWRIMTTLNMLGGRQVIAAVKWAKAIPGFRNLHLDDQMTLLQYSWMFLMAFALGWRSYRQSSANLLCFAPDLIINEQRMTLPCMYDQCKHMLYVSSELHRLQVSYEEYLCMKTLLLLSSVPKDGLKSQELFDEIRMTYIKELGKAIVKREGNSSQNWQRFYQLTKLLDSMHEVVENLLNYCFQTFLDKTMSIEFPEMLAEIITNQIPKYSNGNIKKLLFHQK
Experimental: Glucocorticoid Receptor Binding Assay
The ability of the substances to bind to the glucocorticoid receptor was determined with the help of a commercial Glucocorticoid Receptor Competitor Assay far red kit provided by Panvera/Invitrogen (PV4302). This kit is used as provided by the supplier. It contains some partially purified full length human recombinant glucocorticoid receptor, a coactivator related GR stabilizing peptide, a tight-binding fluorescent GR ligand Fluormone™ GS Far Red as labeled tracer and a screening buffer. All reagents are prepared and the assay is run according to the recommendations of the kit manufacturer.
Briefly, the GR stabilizing peptide and the human recombinant glucocorticoid receptor are both diluted with the screening buffer (pH 7.4) and are gently mixed (no vortexing) just before the assay and kept on ice until use. The fluorescent-labeled ligand is also diluted with the screening buffer just before the assay and kept on ice until use. The substances to test are pre-diluted in pure DMSO then some water is added to get an intermediate 4.2% DMSO stock solution. Ten microliter of the intermediate stock solution is gently mixed with 5 μl of diluted fluorescent-labeled ligand and 5 μl of diluted human recombinant glucocorticoid receptor in a 384-well plate (low volume, ultraclear, glass plate from Greiner ref 788896). The plate is centrifuged, sealed and incubated for 3 hours at 22° C. in the dark. The polarized fluorescence is measured with a Zeiss-HTS reader or any equivalent equipment (610-660 nm).
All compounds were tested to determine IC50 in a serial dilution experiment. The concentration at which 50% inhibition of the fluorescent GR ligand Fluormone™ GS Far Red is obtained (the IC50) is determined after fitting with a sigmoidal dose-response model of a plot of the logarithm of the concentration versus percent inhibition measured for the different concentrations. Ki's were calculated from IC50 based on Cheng-Prusoff equation (Cheng, Y, Prusoff, W H (1973) Biochem Pharmacol 22, 3099-3108): Ki=IC50/[1+D/Kd] wherein D is the concentration of the fluorescent ligand and Kd is the binding constant for the fluorescent ligand binding to the receptor under the conditions used in the competition experiment.

Ki	SMILES
0.2 nM	Cc1cc([C@@](O)([C@@H](C)c2ccc(Oc3ccc(C(=O)O)cc3F)cc2Cl)C(F)(F)F)cn(C)c1=O (relative stereo) [Example 216, 4-{3-Chloro-4-[2-(1,5-dimethyl-6-oxo-1,6-dihydro-pyridin-3-yl)-3,3,3-trifluoro-2-hydroxy-1-methyl-propyl]-phenoxy}-3-fluoro-benzoic acid]
2.9 nM	COC(=O)c1ccc(Oc2ccc([C@H](C)[C@](O)(c3cc(C)c(=O)n(C)c3)C(F)(F)F)c(Cl)c2)nc1 (relative stereo) [Example 217, 6-{3-Chloro-4-[2-(1,5-dimethyl-6-oxo-1,6-dihydro-pyridin-3-yl)-3,3,3-trifluoro-2-hydroxy-1-methyl-propyl]-phenoxy}-nicotinic acid methyl ester]
24.4 nM	C[C@H](c1ccc(-c2ccc(F)c(C(=O)O)c2)cc1Cl)[C@@](O)(c1cnc2ccccc2c1)C(F)(F)F (relative stereo) [Example 226, 3′-Chloro-4-fluoro-4′-(3,3,3-trifluoro-2-hydroxy-1-methyl-2-quinolin-3-yl-propyl)-biphenyl-3-carboxylic acid]
14.3 nM	C[C@H](c1ccc(Oc2ncc(C(=O)O)cc2Cl)cc1Cl)[C@@](O)(c1ccc2nccnc2c1)C(F)(F)F (relative stereo) [Example 227, 5-Chloro-6-[3-chloro-4-(3,3,3-trifluoro-2-hydroxy-1-methyl-2-quinoxalin-6-yl-propyl)-phenoxy]-nicotinic acid]
11.2 nM	Cc1cc([C@](O)([C@H](C)c2ccc(-c3ccc(C(=O)O)c(F)c3)cc2Cl)C(F)(F)F)sc1C#N (relative stereo) [Example 229, 3′-Chloro-4′-[2-(5-cyano-4-methyl-thiophen-2-yl)-3,3,3-trifluoro-2-hydroxy-1-methyl-propyl]-3-fluoro-biphenyl-4-carboxylic acid]
1.7 nM	Cc1cc([C@](O)([C@H](C)c2ccc(Oc3ncc(C(=O)O)cc3Cl)cc2Cl)C(F)(F)F)cnc1C#N (relative stereo) [Example 231, 5-Chloro-6-{3-chloro-4-[2-(6-cyano-5-methyl-pyridin-3-yl)-3,3,3-trifluoro-2-hydroxy-1-methyl-propyl]-phenoxy}-nicotinic acid]
24.3 nM	COC(=O)c1cnc(Oc2ccc([C@@H](C)[C@@](O)(c3ccc(=O)n(C)c3)C(F)(F)F)c(Cl)c2Cl)cn1 (relative stereo) [Example 237, 5-{2,3-Dichloro-4-[3,3,3-trifluoro-2-hydroxy-1-methyl-2-(1-methyl-6-oxo-1,6-dihydro-pyridin-3-yl)-propyl]-phenoxy}-pyrazine-2-carboxylic acid methyl ester]
14.5 nM	CCOC(=O)C(C)(C)Oc1ccc([C@H](C)[C@](O)(c2ccc(=O)n(C)c2)C(F)(F)F)c(Cl)c1Cl (relative stereo) [Example 239, 2-{2,3-Dichloro-4-[3,3,3-trifluoro-2-hydroxy-1-methyl-2-(1-methyl-6-oxo-1,6-dihydro-pyridin-3-yl)-propyl]-phenoxy}-2-methyl-propionic acid ethyl ester]
1.1 nM	Cc1cc(C(=O)O)cnc1Oc1ccc([C@H](C)[C@](O)(c2cc(C)c(=O)n(C)c2)C(F)(F)F)c(Cl)c1 (relative stereo) [Example 252, 6-{3-Chloro-4-[2-(1,5-dimethyl-6-oxo-1,6-dihydro-pyridin-3-yl)-3,3,3-trifluoro-2-hydroxy-1-methyl-propyl]-phenoxy}-5-methyl-nicotinic acid]
1.5 nM	COC(=O)c1cnc(Oc2ccc([C@H](C)[C@](O)(c3cc(C)c(=O)n(C)c3)C(F)(F)F)c(Cl)c2)nc1 (relative stereo) [Example 253, 2-{3-Chloro-4-[2-(1,5-dimethyl-6-oxo-1,6-dihydro-pyridin-3-yl)-3,3,3-trifluoro-2-hydroxy-1-methyl-propyl]-phenoxy}-pyrimidine-5-carboxylic acid methyl ester]
1.7 nM	Cc1cc([C@@](O)([C@@H](C)c2ccc(Oc3ccc(C(=O)O)cc3C(F)(F)F)cc2Cl)C(F)(F)F)cn(C)c1=O (single isomer, unassigned) [Example 219, 4-{3-Chloro-4-[2-(1,5-dimethyl-6-oxo-1,6-dihydro-pyridin-3-yl)-3,3,3-trifluoro-2-hydroxy-1-methyl-propyl]-phenoxy}-3-trifluoromethyl-benzoic acid]
38.1 nM	CCOC(=O)c1ccc(COc2ccc([C@@H](C)[C@@](O)(c3cnc(C)cn3)C(F)(F)F)c(Cl)c2)cc1 (stereo in doubt) [Example 7, 4-{3-Chloro-4-[(1R,2R)-3,3,3-trifluoro-2-hydroxy-1-methyl-2-(5-methyl-pyrazin-2-yl)-propyl]-phenoxymethyl}-benzoic acid ethyl ester]
33.5 nM	Cc1cnc([C@](O)([C@H](C)c2ccc(OCc3ccc(CC(=O)O)cc3)cc2Cl)C(F)(F)F)cn1 (stereo in doubt) [Example 12, (4-{3-Chloro-4-[3,3,3-trifluoro-2-hydroxy-1-methyl-2-(5-methyl-pyrazin-2-yl)-propyl]-phenoxymethyl}-phenyl)-acetic acid]
11.8 nM	COC(=O)c1ccc(COc2ccc([C@@H](C)[C@@](O)(c3cnc(C)cn3)C(F)(F)F)c(Cl)c2)c(Cl)c1 (stereo in doubt) [Example 13, 3-Chloro-4-{3-chloro-4-[3,3,3-trifluoro-2-hydroxy-1-methyl-2-(5-methyl-pyrazin-2-yl)-propyl]-phenoxymethyl}-benzoic acid methyl ester]
2.8 nM	Cc1cnc([C@](O)([C@H](C)c2ccc(OCc3ccc(C(=O)O)cc3Cl)cc2Cl)C(F)(F)F)cn1 (stereo in doubt) [Example 14, 3-Chloro-4-{3-chloro-4-[3,3,3-trifluoro-2-hydroxy-1-methyl-2-(5-methyl-pyrazin-2-yl)-propyl]-phenoxymethyl}-benzoic acid]
72.3 nM	COc1cc(C(=O)O)ccc1COc1ccc([C@@H](C)[C@@](O)(c2cnc(C)cn2)C(F)(F)F)c(Cl)c1 (stereo in doubt) [Example 16, 4-{3-Chloro-4-[3,3,3-trifluoro-2-hydroxy-1-methyl-2-(5-methyl-pyrazin-2-yl)-propyl]-phenoxymethyl}-3-methoxy-benzoic acid]
33.9 nM	COC(=O)C(C)c1ccc(COc2ccc([C@@H](C)[C@@](O)(c3cnc(C)cn3)C(F)(F)F)c(Cl)c2)cc1 (stereo in doubt) [Example 17, 2-(4-{3-Chloro-4-[3,3,3-trifluoro-2-hydroxy-1-methyl-2-(5-methyl-pyrazin-2-yl)-propyl]-phenoxymethyl}-phenyl)-propionic acid methyl ester]
110 nM	Cc1cnc([C@](O)([C@H](C)c2ccc(OCc3ccc(C(C)C(=O)O)cc3)cc2Cl)C(F)(F)F)cn1 (stereo in doubt) [Example 18, 2-(4-{3-Chloro-4-[3,3,3-trifluoro-2-hydroxy-1-methyl-2-(5-methyl-pyrazin-2-yl)-propyl]-phenoxymethyl}-phenyl)-propionic acid]
45.9 nM	CCOC(=O)c1ccc(COc2ccc([C@@H](C)[C@@](O)(c3ccnc(Cl)c3)C(F)(F)F)c(Cl)c2)cc1 (stereo in doubt) [Example 19, 4-{3-Chloro-4-[2-(2-chloro-pyridin-4-yl)-3,3,3-trifluoro-2-hydroxy-1-methyl-propyl]-phenoxymethyl}-benzoic acid ethyl ester]

Same assay, conditions: Ki calculated from IC50 by Cheng-Prusoff; 3 hours at 22° C., pH 7.4

Ki	SMILES
1.7 nM	Cc1cc([C@@](O)([C@@H](C)c2ccc(Oc3ccc(C(=O)O)cc3C(F)(F)F)cc2Cl)C(F)(F)F)cn(C)c1=O (single isomer, unassigned) [Example 241, 4-{3-Chloro-4-[2-(1,5-dimethyl-6-oxo-1,6-dihydro-pyridin-3-yl)-3,3,3-trifluoro-2-hydroxy-1-methyl-propyl]-phenoxy}-3-trifluoromethyl-benzoic acid]
